Data published in a compilation of properties of binary mixtures (doi:10.1016/j.molliq.2019.111804).

Test: xn = mol fraction of the nth substance listed
Settings: 101 kPa

CCCC[n+]1ccn(C)c1.[Cl-] + CO
electrical conductivity (293.15 K, x1 = 0.0011): 0.18 S/m
electrical conductivity (293.15 K, x1 = 0.0022): 0.34 S/m
electrical conductivity (293.15 K, x1 = 0.0035): 0.48 S/m
electrical conductivity (293.15 K, x1 = 0.0045): 0.6 S/m
electrical conductivity (293.15 K, x1 = 0.0056): 0.72 S/m
electrical conductivity (293.15 K, x1 = 0.0068): 0.83 S/m
electrical conductivity (293.15 K, x1 = 0.0092): 1.02 S/m
electrical conductivity (293.15 K, x1 = 0.0104): 1.13 S/m
electrical conductivity (303.15 K, x1 = 0.0011): 0.2 S/m
electrical conductivity (303.15 K, x1 = 0.0022): 0.38 S/m
electrical conductivity (303.15 K, x1 = 0.0035): 0.53 S/m
electrical conductivity (303.15 K, x1 = 0.0056): 0.79 S/m
electrical conductivity (303.15 K, x1 = 0.0068): 0.9 S/m
electrical conductivity (303.15 K, x1 = 0.008): 1.01 S/m
electrical conductivity (303.15 K, x1 = 0.0092): 1.11 S/m
electrical conductivity (303.15 K, x1 = 0.0104): 1.22 S/m
electrical conductivity (313.15 K, x1 = 0.0011): 0.23 S/m
electrical conductivity (313.15 K, x1 = 0.0045): 0.75 S/m
electrical conductivity (313.15 K, x1 = 0.0056): 0.87 S/m
electrical conductivity (313.15 K, x1 = 0.0068): 1.01 S/m
electrical conductivity (313.15 K, x1 = 0.008): 1.12 S/m
electrical conductivity (313.15 K, x1 = 0.0092): 1.23 S/m
electrical conductivity (313.15 K, x1 = 0.0104): 1.33 S/m
electrical conductivity (323.15 K, x1 = 0.0011): 0.26 S/m
electrical conductivity (323.15 K, x1 = 0.0022): 0.48 S/m
electrical conductivity (323.15 K, x1 = 0.0035): 0.67 S/m
electrical conductivity (323.15 K, x1 = 0.0056): 0.96 S/m
electrical conductivity (323.15 K, x1 = 0.0068): 1.1 S/m
electrical conductivity (323.15 K, x1 = 0.008): 1.24 S/m
electrical conductivity (323.15 K, x1 = 0.0092): 1.35 S/m
electrical conductivity (323.15 K, x1 = 0.0104): 1.45 S/m

CO + CCCC[n+]1ccn(C)c1.[Cl-]
electrical conductivity (293.15 K, x2 = 0): 0.003 S/m
electrical conductivity (303.15 K, x2 = 0): 0.004 S/m
electrical conductivity (313.15 K, x2 = 0): 0.007 S/m
electrical conductivity (323.15 K, x2 = 0): 0.011 S/m
